31 compounds from US9815839B2, “N-(1-(substituted-phenyl)ethyl)-9H-purin-6-amines as PI3K inhibitors” (Incyte Corporation, priority 2010, dated 2017) can be followed below.

Broadly, the IC50 is the concentration at which inhibition is half-maximal. Lower therefore signals greater potency.

This test concerns the target T1, PI3Kδ (p110δ/p85α) (Homo sapiens, UniProt O00329).
T1 construct: purchased Millipore (Bedford, Mass.)
As to the kind of experiment: PI3Kδ scintillation proximity assay. It is filed as biochemical. The conditions noted are these: 20 μM ATP, 4 nM PI3Kδ. From the text: Example A: PI3Kδ Scintillation Proximity Assay
Materials: [γ-^33P]ATP (10 mCi/mL) was purchased from Perkin-Elmer (Waltham, Mass.). Lipid kinase substrate, D-myo-Phosphatidylinositol 4,5-bisphosphate (PtdIns(4,5)P2)D (+)-sn-1,2-di-O-octanoylglyceryl, 3-O-phospho linked (PIP2), CAS 204858-53-7, was purchased from Echelon Biosciences (Salt Lake City, Utah). PI3Kδ (p110δ/p85α) was purchased from Millipore (Bedford, Mass.). ATP, MgCl2, DTT, EDTA, MOPS and CHAPS were purchased from Sigma-Aldrich (St. Louis, Mo.). Wheat Germ Agglutinin (WGA) YSi SPA Scintillation Beads was purchased from GE healthcare life sciences (Piscataway, N.J.).
The kinase reaction was conducted in polystyrene 384-well matrix white plate from Thermo Fisher Scientific in a final volume of 25 μL. Inhibitors were first diluted serially in DMSO and added to the plate wells before the addition of other reaction components. The final concentration of DMSO in the assay was 0.5%. The PI3K assays were carried out at room temperature in 20 mM MOPS, pH 6.7, 10 mM MgCl2, 5 mM DTT and CHAPS 0.03%. Reactions were initiated by the addition of ATP, the final reaction mixture consisted of 20 μM PIP2,20 μM ATP, 0.2 μCi [γ-^33P] ATP, 4 nM PI3Kδ. Reactions were incubated for 210 minutes and terminated by the addition of 40 μL SPA beads suspended in quench buffer: 150 mM potassium phosphate pH 8.0, 20% glycerol. 25 mM EDTA, 400 µM ATP. The final concentration of SPA beads is 1.0 mg/mL. After the plate sealing, plates were shaken overnight at room temperature and centrifuged at 1800 rpm for 10 minutes, the radioactivity of the product was determined by scintillation counting on Topcount (Perkin-Elmer). IC50 determination was performed by fitting the curve of percent control activity versus the log of the inhibitor concentration using the GraphPad Prism 3.0 software.
(SPA uses beads or plates that emit light when radiolabelled molecules are held near them.)

Structures can show the parent of a compound that is named as a salt. Bounds are passed on as bounds.

T1 sequence (O00329 whole entry, species assumed): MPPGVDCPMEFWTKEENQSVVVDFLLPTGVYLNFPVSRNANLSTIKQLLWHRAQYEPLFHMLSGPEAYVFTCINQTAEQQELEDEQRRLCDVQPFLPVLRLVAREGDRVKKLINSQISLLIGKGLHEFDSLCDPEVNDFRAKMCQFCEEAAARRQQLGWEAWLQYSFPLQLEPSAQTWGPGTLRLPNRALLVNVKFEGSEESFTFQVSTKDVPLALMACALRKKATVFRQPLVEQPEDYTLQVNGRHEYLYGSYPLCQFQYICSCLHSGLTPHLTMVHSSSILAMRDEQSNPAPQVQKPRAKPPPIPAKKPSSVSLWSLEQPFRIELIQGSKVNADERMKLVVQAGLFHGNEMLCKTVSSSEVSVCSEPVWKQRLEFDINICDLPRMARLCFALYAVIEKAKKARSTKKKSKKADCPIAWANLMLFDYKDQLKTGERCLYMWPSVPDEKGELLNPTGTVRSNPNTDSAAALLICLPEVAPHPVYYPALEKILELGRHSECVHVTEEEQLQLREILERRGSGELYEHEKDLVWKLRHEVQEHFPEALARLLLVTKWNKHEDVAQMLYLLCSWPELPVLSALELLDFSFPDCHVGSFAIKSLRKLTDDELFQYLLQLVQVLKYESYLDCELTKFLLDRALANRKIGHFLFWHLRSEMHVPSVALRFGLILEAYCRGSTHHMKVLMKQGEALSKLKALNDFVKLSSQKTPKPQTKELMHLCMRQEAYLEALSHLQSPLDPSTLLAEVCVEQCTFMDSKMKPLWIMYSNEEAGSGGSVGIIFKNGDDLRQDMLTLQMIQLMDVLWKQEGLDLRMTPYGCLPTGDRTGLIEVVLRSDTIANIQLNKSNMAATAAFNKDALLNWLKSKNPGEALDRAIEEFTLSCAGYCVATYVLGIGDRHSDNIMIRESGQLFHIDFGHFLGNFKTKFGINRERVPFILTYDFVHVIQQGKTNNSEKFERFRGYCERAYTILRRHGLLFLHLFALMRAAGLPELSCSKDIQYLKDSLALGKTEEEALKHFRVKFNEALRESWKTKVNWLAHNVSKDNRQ
T1 sequence (P27986 whole entry partner, species assumed): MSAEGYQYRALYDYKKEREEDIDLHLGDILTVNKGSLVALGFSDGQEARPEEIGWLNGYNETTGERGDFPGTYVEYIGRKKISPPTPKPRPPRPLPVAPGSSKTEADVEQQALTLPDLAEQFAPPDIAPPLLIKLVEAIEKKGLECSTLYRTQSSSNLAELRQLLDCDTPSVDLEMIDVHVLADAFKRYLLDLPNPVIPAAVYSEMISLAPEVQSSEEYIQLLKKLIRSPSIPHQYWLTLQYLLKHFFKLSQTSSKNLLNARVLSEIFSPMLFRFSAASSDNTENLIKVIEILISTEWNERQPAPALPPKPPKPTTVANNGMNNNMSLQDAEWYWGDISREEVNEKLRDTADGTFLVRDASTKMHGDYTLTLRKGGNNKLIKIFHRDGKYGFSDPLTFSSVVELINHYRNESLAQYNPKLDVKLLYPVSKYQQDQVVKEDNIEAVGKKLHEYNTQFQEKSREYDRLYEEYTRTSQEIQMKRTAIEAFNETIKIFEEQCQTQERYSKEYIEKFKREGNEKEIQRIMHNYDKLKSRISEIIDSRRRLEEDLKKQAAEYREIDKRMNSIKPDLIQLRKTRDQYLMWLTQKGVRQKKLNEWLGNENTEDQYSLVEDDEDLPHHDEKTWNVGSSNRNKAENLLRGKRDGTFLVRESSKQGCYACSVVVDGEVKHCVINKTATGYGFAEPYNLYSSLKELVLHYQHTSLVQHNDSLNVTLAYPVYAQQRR

Consider `COc1c(C(C)Nc2ncnc3[nH]cnc23)cc(Cl)c(C)c1-c1cncc(C#N)c1` (stereo not shown) [Example 114, 5-{3-chloro-6-methoxy-2-methyl-5-[1-(9H-purin-6-ylamino)ethyl]phenyl}nicotinonitrile], for which the IC50 is under 0.05 µM.
In turn, `COc1c(C(C)Nc2ncnc3[nH]cnc23)cc(Cl)c(C)c1-c1cnc(N)nc1` (stereo not shown) [Example 115, N-{1-[3-(2-aminopyrimidin-5-yl)-5-chloro-2-methoxy-4-methylphenyl]ethyl}-9H-purin-6-amine] came in with a concentration for half-maximal inhibition (IC50) of under 0.05 µM.
For `COc1c(C(C)Nc2ncnc3[nH]cnc23)cc(Cl)c(C)c1-c1cnn(CC#N)c1` (stereo not shown) [Example 117, (4-{3-Chloro-6-methoxy-2-methyl-5-[1-(9H-purin-6-ylamino)ethyl]phenyl}-1H-pyrazol-1-yl)acetonitrile trifluoroacetate], the IC50 is under 0.05 µM.
Compound `COc1c(C(C)Nc2ncnc3[nH]cnc23)cc(F)c(C)c1-c1ccc(S(C)(=O)=O)cc1` (stereo not shown) [Example 118, N-{1-[5-Fluoro-2-methoxy-6-methyl-4′-(methylsulfonyl)biphenyl-3-yl]ethyl}-9H-purin-6-amine] gave a half-maximal inhibitory concentration (IC50) of 0.05 to 0.1 µM.
`CCOc1cccc(-c2c(C)c(F)cc(C(C)Nc3ncnc4[nH]cnc34)c2OC)c1` (stereo not shown) [Example 119, N-[1-(3′-ethoxy-5-fluoro-2-methoxy-6-methylbiphenyl-3-yl)ethyl]-9H-purin-6-amine] yielded an IC50 of 0.1 to 0.25 µM.
For the compound `COc1c(C(C)Nc2ncnc3[nH]cnc23)cc(F)c(C)c1-c1ccc(C(=O)NC2CC2)cc1` (stereo not shown) [Example 120, N-cyclopropyl-3′-fluoro-6′-methoxy-2′-methyl-5′-[1-(9H-purin-6-ylamino)ethyl]biphenyl-4-carboxamide], the IC50 lay within 0.05 to 0.1 µM.
As to `COc1c(C(C)Nc2ncnc3[nH]cnc23)cc(F)c(C)c1-c1cnn(C)c1` (stereo not shown) [Example 121, N-{1-[5-fluoro-2-methoxy-4-methyl-3-(1-methyl-1H-pyrazol-4-yl)phenyl]ethyl}-9H-purin-6-amine], the IC50 was under 0.05 µM.
On to `COc1c(C(C)Nc2ncnc3[nH]cnc23)cc(F)c(C)c1-c1ccnn1C` (stereo not shown) [Example 122, N-{1-[5-fluoro-2-methoxy-4-methyl-3-(1-methyl-1H-pyrazol-5-yl)phenyl]ethyl}-9H-purin-6-amine], for which the half-maximal inhibitory concentration (IC50) lay in the range of 0.25 to 0.5 µM.
The compound `COc1c(C(C)Nc2ncnc3[nH]cnc23)cc(F)c(C)c1-c1cnc(N)nc1` (stereo not shown) [Example 123, N-{1-[3-(2-aminopyrimidin-5-yl)-5-fluoro-2-methoxy-4-methylphenyl]ethyl}-9H-purin-6-amine] displayed an IC50 of 0.05 to 0.1 µM.
Take `COc1c(-c2cncc(Cl)c2)cc(Cl)cc1C(C)Nc1ncnc2[nH]cnc12` (stereo not shown) [Example 125, N-{1-[5-Chloro-3-(5-chloropyridin-3-yl)-2-methoxyphenyl]ethyl}-9H-purin-6-amine]: the half-maximal inhibitory concentration (IC50) lay within 0.05 to 0.1 µM.
With `Cc1c(Cl)cc(C(C)Nc2ncnc3[nH]cnc23)c(OCCN2CCOCC2)c1-c1ccncc1` (stereo not shown) [Example 126, N-{1-[5-Chloro-4-methyl-2-(2-morpholin-4-ylethoxy)-3-pyridin-4-ylphenyl]ethyl}-9H-purin-6-amine] the figure was under 0.05 µM; with `Cc1c(Cl)cc(C(C)Nc2ncnc3[nH]cnc23)c(C)c1-c1ccncc1` (stereo not shown) [Example 127, N-[1-(5-Chloro-2,4-dimethyl-3-pyridin-4-ylphenyl)ethyl]-9H-purin-6-amine], under 0.05 µM; with `Cc1c(Cl)cc(C(C)Nc2ncnc3[nH]cnc23)c(OCCN2CCOCC2)c1-c1ccc(S(C)(=O)=O)cc1` (stereo not shown) [Example 128, N-{1-[5-Chloro-6-methyl-4′-(methylsulfonyl)-2-(2-morpholin-4-ylethoxy)biphenyl-3-yl]ethyl}-9H-purin-6-amine], under 0.05 µM.
The compound `COc1ncc(-c2cc(Cl)cc(C(C)Nc3ncnc4[nH]cnc34)c2-c2cc(F)cc(F)c2)cn1` (stereo not shown) [Example 129, N-{1-[4-chloro-3′,5′-difluoro-6-(2-methoxy-pyrimidin-5-yl)biphenyl-2-yl]ethyl}-9H-purin-6-amine] gave an IC50 of under 0.05 µM.
Regarding `CC(=O)Nc1ccc(-c2cc(Cl)cc(C(C)Nc3ncnc4[nH]cnc34)c2-c2cc(F)cc(F)c2)cc1` (stereo not shown) [Example 130, N-{5′-chloro-3″,5″-difluoro-3′-[1-(9H-purin-6-ylamino)ethyl]-1,1′:2′,1″-terphenyl-4-yl}acetamide], the IC50 was under 0.05 µM.
Compound `CC(Nc1ncnc2[nH]cnc12)c1cc(Cl)cc(-c2ccncc2)c1-c1cc(F)cc(F)c1` (stereo not shown) [Example 131, N-[1-(4-chloro-3′,5′-difluoro-6-pyridin-4-ylbiphenyl-2-yl)ethyl]-9H-purin-6-amine] gave an IC50 of under 0.05 µM.
`CC(Nc1ncnc2[nH]cnc12)c1cc(Cl)cc(-c2cncnc2)c1-c1cc(F)cc(F)c1` (stereo not shown) [Example 132, N-[1-(4-chloro-3′,5′-difluoro-6-pyrimidin-5-ylbiphenyl-2-yl)ethyl]-9H-purin-6-amine] registered an IC50 of under 0.05 µM.
In the case of `CC(Nc1ncnc2[nH]cnc12)c1cc(Cl)cc(-c2cc(F)nc(F)c2)c1-c1cc(F)cc(F)c1` (stereo not shown) [Example 133, N-{1-[4-chloro-6-(2,6-difluoropyridin-4-yl)-3′,5′-difluorobiphenyl-2-yl]ethyl}-9H-purin-6-amine], the IC50 fell in the range of 0.05 to 0.1 µM.
Consider `CC(Nc1ncnc2[nH]cnc12)c1cc(Cl)cc(-c2ccc(S(C)(=O)=O)cc2)c1-c1cc(F)cc(F)c1` (stereo not shown) [Example 134, N-{1-[5′-chloro-3″,5″-difluoro-4-(methyl-sulfonyl)-1,1′:2′,1″-terphenyl-3′-yl]ethyl}-9H-purin-6-amine], for which the IC50 is under 0.05 µM.
The compound `CC(Nc1ncnc2[nH]cnc12)c1cc(Cl)cc(-c2cnc(N)nc2)c1-c1cc(F)cc(F)c1` (stereo not shown) [Example 135, N-{1-[6-(2-amino-pyrimidin-5-yl)-4-chloro-3′,5′-difluorobiphenyl-2-yl]ethyl}-9H-purin-6-amine] had an IC50 of under 0.05 µM.
As to `COc1c(-c2cc(F)nc(F)c2)cc(Cl)cc1C(C)Nc1ncnc2[nH]cnc12` (stereo not shown) [Example 141, N-{1-[5-chloro-3-(2,6-difluoropyridin-4-yl)-2-methoxyphenyl]ethyl}-9H-purin-6-amine], the IC50 lay within 0.25 to 0.5 µM.
Turning to `COc1c(-c2ccc(S(C)(=O)=O)cc2)cc(Cl)cc1C(C)Nc1ncnc2[nH]cnc12` (stereo not shown) [Example 142, N-{1-[5-chloro-2-methoxy-4′-(methylsulfonyl)-biphenyl-3-yl]ethyl}-9H-purin-6-amine], the IC50 lay within 0.05 to 0.1 µM.
`COc1c(-c2cnc(N)nc2)cc(Cl)cc1C(C)Nc1ncnc2[nH]cnc12` (stereo not shown) [Example 143, N-{1-[3-(2-amino-pyrimidin-5-yl)-5-chloro-2-methoxyphenyl]-ethyl}-9H-purin-6-amine] yielded an IC50 of 0.1 to 0.25 µM.
For the compound `CNC(=O)c1ccc(-c2cc(Cl)cc(C(C)Nc3ncnc4[nH]cnc34)c2OC)cc1Cl` (stereo not shown) [Example 144, 3,5′-dichloro-2′-methoxy-N-methyl-3′-[1-(9H-purin-6-ylamino)ethyl]biphenyl-4-carboxamide], the IC50 is under 0.05 µM.
On to `COc1c(-c2ccnc(F)c2)cc(Cl)cc1C(C)Nc1ncnc2[nH]cnc12` (stereo not shown) [Example 145, N-{1-[5-chloro-3-(2-fluoropyridin-4-yl)-2-methoxyphenyl]ethyl}-9H-purin-6-amine], for which the half-inhibitory concentration (IC50) was under 0.05 µM.
In turn, `COc1cncc(-c2cc(Cl)cc(C(C)Nc3ncnc4[nH]cnc34)c2OC)c1` (stereo not shown) [Example 146, N-{1-[5-chloro-2-methoxy-3-(5-methoxy-pyridin-3-yl)phenyl]ethyl}-9H-purin-6-amine] registered an IC50 of 0.05 to 0.1 µM.
`COc1c(-c2ccc(F)nc2)cc(Cl)cc1C(C)Nc1ncnc2[nH]cnc12` (stereo not shown) [Example 147, N-{1-[5-chloro-3-(6-fluoropyridin-3-yl)-2-methoxyphenyl]-ethyl}-9H-purin-6-amine] registered an IC50 of under 0.05 µM.
On to `COc1ccc(-c2cc(Cl)cc(C(C)Nc3ncnc4[nH]cnc34)c2OC)cn1` (stereo not shown) [Example 148, N-{1-[5-chloro-2-methoxy-3-(6-methoxypyridin-3-yl)phenyl]ethyl}-9H-purin-6-amine], for which the IC50 fell in the range of 0.05 to 0.1 µM.
Take `Cc1c(Cl)cc(C(C)Nc2ncnc3[nH]cnc23)c(OCCN2CCOCC2)c1-c1cnc(N)nc1` (stereo not shown) [Example 149, N-{1-[3-(2-amino-pyrimidin-5-yl)-5-chloro-4-methyl-2-(2-morpholin-4-ylethoxy)-phenyl]ethyl}-9H-purin-6-amine]: the IC50 was under 0.05 µM.
Compound `COc1cccc(-c2c(C)c(Cl)cc(C(C)Nc3ncnc4[nH]cnc34)c2OCCN2CCOCC2)c1` (stereo not shown) [Example 150, N-{1-[5-chloro-3′-methoxy-6-methyl-2-(2-mor-pholin-4-ylethoxy)-biphenyl-3-yl]ethyl}-9H-purin-6-amine] had an IC50 of under 0.05 µM.
The compound `Cc1c(Cl)cc(C(C)Nc2ncnc3[nH]cnc23)c(OCCN2CCOCC2)c1-c1cncc(Cl)c1` (stereo not shown) [Example 151, N-{1-[5-chloro-3-(5-chloro-pyridin-3-yl)-4-methyl-2-(2-morpho-lin-4-yl-ethoxy)-phenyl]-ethyl}-9H-purin-6-amine] returned an IC50 of under 0.05 µM.
